# According to patent US20260000676A1, “CHROMAN DERIVATIVES AS ESTROGEN RECEPTOR DEGRADERS” (THE REGENTS OF THE UNIVERSITY OF MICHIGAN, priority 2022, published 2026):
# Like-named read-outs stand apart in the source and are kept apart here.
# Assays:
# T47D cell line = assay: Cell growth assay (WST-8) in T47D cell line; type: cell-based; settings: Homo sapiens, 96 h, WST-8, 4 days, read-out: Cell Growth Inhibition in T47D cell line IC50
# Description: Cell Growth Assay. The cells are seeded at certain concentration (e.g., at 1500/well) in multi-well plates overnight. Cells are subsequently treated with the compounds. A certain period of time (e.g., 4 days) after the compound treatment, 10% WST-8 reagent is added to the culture medium and incubate under certain conduction (e.g., in a CO2 incubator at 37° C. for 2.5 hours). The absorbance is measured on each sample using a microplate reader at certain wavelength (e.g., 450 nm). The relative absorbance is calculated against the vehicle control from three individually repeats.
# Cell Growth Assay. The cells were seeded at 1500/well in 96 well plates overnight. One day after the seeding, they were treated with indicated doses of compounds respectively. 4 days after the compound treatment, 10% WST-8 reagent was added to the culture medium and incubate in a CO2 incubator at 37° C. for 2.5 hours. Before reading, the plate was mixed gently on an orbital shaker for one minute to ensure homogeneous distribution of color. The absorbance was measured of each sample using a microplate reader at a wavelength of 450 nm. The relative absorbance was calculated against the vehicle control from three individually repeats.
# ER [1] = target: T1, ER (Homo sapiens (Human), UniProt P03372); assay: In-cell western blot analysis (Compounds B1 to B5); type: cell-based; settings: 16 hours; read-out: ICW DC50
# Description: In-cell western blot analysis. Cells are seeded in multi-well plates (e.g., at 40,000 or 10,000 cells/well). Diluted compounds at certain concentration are added (final 0.5% DMSO) and cells are incubated for a certain period of time (e.g., 16 hours). Formaldehyde (e.g., PBS:FA=9:1) is added and followed by washing with PBS. The cells are blocked with Licor blocking buffer (Li-Cor). The relative ER percentage in treated cells were obtained by comparing the values of treated wells to those in untreated and DMSO-treated wells as 100%.
# In-cell western blot analysis, a. seed cells in black-sided/clear bottom 96- or 384-well plates at 40,000 or 10,000 cells/well, overnight; b, add diluted compounds (final 0.5% DMSO), 16 hours. 16 h later, remove medium, add 100 μL or 25 µL of 3.7-4.0% formaldehyde (PBS: FA=9:1), RT 20 min, no shaking; c. wash with PBS, and permeabilized with 100 μL or 25 μL/well of 1×PBS+0.1% Triton X-100 10 minutes; d. block with 100 μL or 25 L Licor blocking buffer (Li-Cor), RT 1 h, moderate shaking; d. Add 100 μL or 25 μL of anti-ER (cs-8644, 1:500-1,000)+GAPDH (Millipore MAB374, 1:1000) in Block+0.05% Tween 20. RT 2 h, gentle shaking. Negative control: cells plus secondary antibodies (no primary antibodies); e. wash×4 with PBS+0.05-0.1% Tween 20, gentel shaking; f, anti-rabbit-680 and anti-mouse-800 (both 1:1000 in LiCor block+0.05% Tween20, RT 1 h, gentle shaking, no light. LI-COR: 0.2% to reduce background; g. wash×4 with PBS+0.05% Tween 20, gental shaking; h, add 100 μL or 25 μL of PBS to each well and read on CLX plate reader. The relative ER percentage in treated cells were obtained by comparing the values of treated wells to those in untreated and DMSO-treated wells as 100%.
# ER [2] = target: T1, ER; assay: In-cell western (ICW) ER degradation assay in MCF-7 cells; type: cell-based; settings: MCF7, 16 hrs; for DC50: ER degradation; for MCF7 Dmax %: maximal ER degradation; for Dmax: MCF7, maximal ER degradation
# ERα_LBD(GST) = ERα_LBD(GST) (Homo sapiens (Human), UniProt P03372); assay: LanthaScreen TR-FRET ERα competitive binding assay; settings: read-out: ERα HTRF IC50
# Method in brief: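 GST-tagged ERα LBD (4 nM) with Tb anti-GST (2 nM) and Fluormone ES2 Green tracer (3 nM) in nuclear receptor buffer K plus 5 mM DTT, 1% DMSO; 3-fold compound dilutions, 60 min at room temperature in the dark. TR-FRET 520/495 nm ratio vs log[ligand], sigmoidal fit for IC50; 1 μM ARV_471 as full-inhibition control.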
# T47D cells [3] = settings: read-out: T47D Proliferation IC50; CellTiter-Glo, day 6
# Description: (§1) In vitro assay can be accomplished by MCF-7 and T47D Cell Titer Glo (CTG) assay. MCF-7 and T47D cell (From HDB) are cultured in multi-well white plate with phenol red-free RPMI1640+10% CS-FBS+1% P/S medium (e.g., at 1,000 cells/well). On day 0: Cells are treated with compound at certain concentrations (e.g., 0.5 to 10000 nM) (DMSO and Staurosporine as control). On day 0 and day 6: add Cell Titer Glo reagent and read on EnVision after 30 min incubation for data generation.
# (§2) • 1) Cell culture medium: phenol red-free RPMI1640+10% CS-FBS, 1% P/S
# (§3) Day-1: MCF-7 and T47D cell (From HDB) were cultured in 384-well white plate with phenol red-free RPMI1640+10% CS-FBS+1% P/S medium (1,000 cells/well) for overnight at 37° C., 5% CO2 incubator.
# (§4) Day 0: Cells were treated at desired compound concentrations (0.5 to 10000 nM) (DMSO and Staurosporine as control) for Day 6 at 37° C., 5% CO2 incubator.
# (§5) Day 0 and Day 6: add Cell TiterGlo reagent and read on EnVision after 30 min incubation for data generation.
# MCF-7 cells [4] = settings: read-out: MCF7 Proliferation IC50; CellTiter-Glo, day 6
# Description: as §1, §2, §3, §4, §5
# ER [5] = target: T1, ER; assay: In-cell western (ICW) ER degradation assay in T47D cells; type: cell-based; settings: 16 hrs; for DC50: ER degradation; for T47D Dmax % / Dmax: maximal ER degradation
# CRBN/DDB1 = CRBN/DDB1 (Homo sapiens (Human), UniProt Q96SW2); assay: HTRF binding assay to CRBN/DDB1
# Description: The binding potency was determined using HTRF assay technology (Perkin Elmer). Compounds were serially diluted in DMSO and 0.2 μL volume was transferred to white 384-well plate.
# T47D cells [6] = assay: cells; settings: Homo sapiens, 144 h, read-out: T47D Proliferation IC50 (nM)
# Description: as §1, §2, §3, §4, §5
# MCF-7 cells [7] = assay: cells; settings: Homo sapiens, MCF7, 144 h, read-out: MCF7 Proliferation IC50 (nM)
# Description: as §1, §2, §3, §4, §5
# Chain of ERα_LBD(GST) (P03372 311-547): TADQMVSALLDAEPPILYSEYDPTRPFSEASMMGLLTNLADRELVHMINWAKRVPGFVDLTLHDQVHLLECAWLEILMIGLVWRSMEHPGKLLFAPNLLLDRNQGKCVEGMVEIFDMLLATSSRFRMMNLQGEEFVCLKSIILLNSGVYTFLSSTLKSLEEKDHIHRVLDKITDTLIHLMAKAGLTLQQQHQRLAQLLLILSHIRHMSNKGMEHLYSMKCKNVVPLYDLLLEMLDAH
# T1 sequence (P03372 whole entry): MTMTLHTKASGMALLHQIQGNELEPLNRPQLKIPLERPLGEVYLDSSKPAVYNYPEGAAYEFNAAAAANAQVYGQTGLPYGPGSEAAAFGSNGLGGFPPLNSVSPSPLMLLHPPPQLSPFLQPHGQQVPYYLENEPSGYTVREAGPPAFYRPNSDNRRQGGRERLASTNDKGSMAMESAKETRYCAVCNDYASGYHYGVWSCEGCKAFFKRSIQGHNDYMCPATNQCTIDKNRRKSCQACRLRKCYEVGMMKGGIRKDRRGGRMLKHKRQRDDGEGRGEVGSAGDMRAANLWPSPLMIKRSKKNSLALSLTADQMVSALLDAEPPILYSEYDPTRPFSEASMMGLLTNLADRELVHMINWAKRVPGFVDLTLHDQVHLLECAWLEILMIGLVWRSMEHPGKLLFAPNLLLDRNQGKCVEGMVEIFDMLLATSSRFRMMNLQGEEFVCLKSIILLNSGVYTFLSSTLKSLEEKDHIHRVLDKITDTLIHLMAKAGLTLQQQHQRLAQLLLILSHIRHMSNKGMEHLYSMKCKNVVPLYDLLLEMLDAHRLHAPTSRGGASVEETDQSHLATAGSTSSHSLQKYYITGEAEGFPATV
# Chain of CRBN/DDB1 (Q96SW2 whole entry): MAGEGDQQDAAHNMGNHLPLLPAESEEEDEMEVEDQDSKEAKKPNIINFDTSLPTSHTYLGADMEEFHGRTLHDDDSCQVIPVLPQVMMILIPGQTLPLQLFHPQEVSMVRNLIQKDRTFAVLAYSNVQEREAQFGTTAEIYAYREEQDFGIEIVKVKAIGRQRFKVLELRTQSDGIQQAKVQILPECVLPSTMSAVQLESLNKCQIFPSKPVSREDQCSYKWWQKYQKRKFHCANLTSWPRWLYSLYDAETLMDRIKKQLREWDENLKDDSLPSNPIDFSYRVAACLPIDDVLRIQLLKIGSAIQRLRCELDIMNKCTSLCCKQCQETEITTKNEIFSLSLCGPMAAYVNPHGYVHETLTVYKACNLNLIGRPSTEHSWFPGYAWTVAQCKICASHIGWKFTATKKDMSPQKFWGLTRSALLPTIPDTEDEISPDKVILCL
# Chain of CRBN/DDB1 (Q16531 whole entry partner): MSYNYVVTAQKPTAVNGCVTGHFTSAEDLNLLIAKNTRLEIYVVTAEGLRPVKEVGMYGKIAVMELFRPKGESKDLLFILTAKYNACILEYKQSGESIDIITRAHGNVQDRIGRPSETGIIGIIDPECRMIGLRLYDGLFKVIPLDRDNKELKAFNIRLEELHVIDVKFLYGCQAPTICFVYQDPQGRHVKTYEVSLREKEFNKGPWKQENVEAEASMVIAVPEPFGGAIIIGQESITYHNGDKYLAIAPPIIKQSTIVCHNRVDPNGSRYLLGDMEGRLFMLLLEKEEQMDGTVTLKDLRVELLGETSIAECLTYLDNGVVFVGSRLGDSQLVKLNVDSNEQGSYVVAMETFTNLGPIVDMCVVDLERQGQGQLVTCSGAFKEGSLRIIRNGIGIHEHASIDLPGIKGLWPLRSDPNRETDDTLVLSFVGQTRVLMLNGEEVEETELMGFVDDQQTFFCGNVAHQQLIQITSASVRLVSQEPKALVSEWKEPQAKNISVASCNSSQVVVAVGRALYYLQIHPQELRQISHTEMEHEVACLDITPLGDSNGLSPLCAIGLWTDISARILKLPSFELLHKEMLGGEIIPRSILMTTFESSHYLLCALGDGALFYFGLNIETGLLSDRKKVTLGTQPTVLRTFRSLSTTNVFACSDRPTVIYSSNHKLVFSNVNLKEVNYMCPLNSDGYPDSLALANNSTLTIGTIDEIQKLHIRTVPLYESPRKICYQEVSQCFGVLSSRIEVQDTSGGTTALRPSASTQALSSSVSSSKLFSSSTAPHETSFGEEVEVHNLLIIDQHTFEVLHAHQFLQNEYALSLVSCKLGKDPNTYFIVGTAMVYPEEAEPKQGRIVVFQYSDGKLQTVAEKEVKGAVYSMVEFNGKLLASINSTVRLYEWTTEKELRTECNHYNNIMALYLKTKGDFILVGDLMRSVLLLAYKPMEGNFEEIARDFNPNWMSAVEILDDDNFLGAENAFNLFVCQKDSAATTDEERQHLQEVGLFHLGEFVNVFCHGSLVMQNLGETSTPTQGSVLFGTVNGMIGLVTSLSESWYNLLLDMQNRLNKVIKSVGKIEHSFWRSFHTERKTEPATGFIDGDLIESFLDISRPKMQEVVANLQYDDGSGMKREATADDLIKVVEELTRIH
compound,measurement,setting,value
"O=C1CCC(N2Cc3c(ccc4c3OC[C@H]3CN(CC5CCN(c6ccc(C7c8ccc(O)cc8OCC7c7ccccc7)cc6)CC5)CCN43)C2=O)C(=O)N1 (stereo partly drawn) [Compound B1, 3-((5aR)-7-((1-(4-(7-hydroxy-3-phenylchroman-4-yl)phenyl)piperidin-4-yl)methyl)-1-oxo-1,3,5,5a,6,7,8,9-octahydro-2H-pyrazino[1′,2′:4,5][1,4]oxazino[2,3-e]isoindol-2-yl) piperidine-2,6-dione]",IC50,T47D cell line,> 10 nM
same,DC50,ER [1],> 100 nM
O=C1CCC(N2Cc3c(ccc4c3OC[C@H]3CN(CC5CC6(CCN(c7ccc(C8c9ccc(O)cc9OCC8c8ccccc8)cc7)CC6)C5)CCN43)C2=O)C(=O)N1 (stereo partly shown) [Compound B2],IC50,T47D cell line,> 10 nM
same,DC50,ER [1],> 100 nM
"O=C1CCC(N2C(=O)c3cc4c(cc3C2=O)CN(CC(=O)N2CCC3(CC2)CCN(c2ccc(C5c6ccc(O)cc6OCC5c5ccccc5)cc2)CC3)C4)C(=O)N1 (stereo not shown) [Compound B5, 2-(2,6-dioxopiperidin-3-yl)-6-(2-(9-(4-(7-hydroxy-3-phenylchroman-4-yl)phenyl)-3,9-diazaspiro[5.5]undecan-3-yl)-2-oxoethyl)-6,7-dihydropyrrolo[3,4-f]isoindole-1,3(2H,5H)-dione]",IC50,T47D cell line,> 10 nM
same,DC50,ER [1],> 100 nM
"O=C1CCC(N2Cc3cc4c(cc3C2=O)OC[C@@H]2CN(CC3CCC5(CC3)CN(c3ccc([C@@H]6c7ccc(O)cc7OC[C@@H]6c6ccccc6)cc3)C5)CCN42)C(=O)N1 (stereo partly drawn) [Compound A53, 3-((S)-3-((2-(4-((3S,4R)-7-hydroxy-3-phenylchroman-4-yl)phenyl)-2-azaspiro[3.5]nonan-7-yl)methyl)-8-oxo-1,2,3,4,4a,5,8,10-octahydro-9H-pyrazino[1′,2′:4,5][1,4]oxazino[2,3-f]isoindol-9-yl)piperidine-2,6-dione]",DC50,ER [2],1 to 10 nM
same,MCF7 Dmax %,ER [2],B (“B”: >50% and <75%)
same,IC50,ERα_LBD(GST),< 5 nM
same,IC50,T47D cells [3],50 to 500 nM
same,IC50,MCF-7 cells [4],50 to 500 nM
same,DC50,ER [5],1 to 10 nM
same,T47D Dmax %,ER [5],A (“A”; >=75%)
same,IC50,CRBN/DDB1; read-out: CRBN HTRF IC50,500 to 5000 nM
"O=C1CC[C@@H](N2Cc3c(ccc4c3OCC43CCN(CC4CCC5(CC4)CN(c4ccc([C@H]6c7ccc(O)cc7OC[C@H]6c6ccccc6)cc4)C5)CC3)C2=O)C(=O)N1 [Compound A154, (R)-3-(1′-((2-(4-((3R,4S)-7-hydroxy-3-phenylchroman-4-yl)phenyl)-2-azaspiro[3.5]nonan-7-yl)methyl)-6-oxo-6,8-dihydro-2H,7H-spiro[furo[2,3-e]isoindole-3,4′-piperidin]-7-yl)piperidine-2,6-dione]",DC50,ER [2],< 1 nM
same,Dmax,ER [2],50 to 75%
same,IC50,ERα_LBD(GST),< 5 nM
same,IC50,T47D cells [6],< 50 nM
same,DC50,ER [5],< 1 nM
same,Dmax,ER [5],≥ 75%
same,IC50,CRBN/DDB1; read-out: CRBN HTRF IC50,< 50 nM
same,IC50,MCF-7 cells [7],< 50 nM
"O=C1CCC(N2Cc3cc(N4CCN(CC5CC6(CCN(c7ccc([C@H]8c9ccc(O)cc9OC[C@H]8c8ccccc8)cn7)CC6)C5)CC4)ccc3C2=O)C(=O)N1 (stereo partly drawn) [Compound A98, (R)-3-(5-(4-((7-(5-((3R,4S)-7-hydroxy-3-3-phenylchroman-4-yl)pyridin-2-yl)-7-azaspiro[3.5]nonan-2-yl)methyl)piperazin-1-yl)-1-oxoisoindolin-2-yl)piperidine-2,6-dione]",DC50,ER [2],< 1 nM
same,Dmax,ER [2],≥ 75%
same,IC50,T47D cells [3],< 50 nM
same,IC50,MCF-7 cells [4],< 50 nM
same,DC50,ER [5],< 1 nM
same,Dmax,ER [5],≥ 75%
same,IC50,CRBN/DDB1; read-out: CRBN HTRF IC50,50 to 500 nM
"COc1cc(C(=O)NC2CCC(=O)NC2=O)ncc1N1CCN(CC2CCC3(CC2)CN(c2ccc([C@H]4c5ccc(O)cc5OC[C@H]4c4ccccc4)cc2)C3)CC1 (mixture of isomers) [Compound A117, N-(2,6-dioxopiperidin-3-yl)-5-(4-((2-(4-((3R,4S)-7-hydroxy-3-phenylchroman-4-yl)phenyl)-2-azaspiro[3.5]nonan-7-yl)methyl)piperazin-1-yl)-4-methoxypicolinamide]",DC50,ER [2],< 1 nM
same,Dmax,ER [2],≥ 75%
same,IC50,ERα_LBD(GST),< 5 nM
same,IC50,T47D cells [6],< 50 nM
same,DC50,ER [5],< 1 nM
same,Dmax,ER [5],≥ 75%
same,IC50,CRBN/DDB1; read-out: CRBN HTRF IC50,500 to 5000 nM
same,IC50,MCF-7 cells [7],< 50 nM
"O=C1CCC(N2Cc3c(ccc4c3OCC43CCN(CC4CC5(CCN(c6ccc(C7c8ccc(O)cc8OCC7c7ccccc7)cc6)CC5)C4)CC3)C2=O)C(=O)N1 (stereo not shown) [Compound B4, 3-(1′-((7-(4-(7-hydroxy-3-phenylchroman-4-yl)phenyl)-7-azaspiro[3.5]nonan-2-yl)methyl)-6-oxo-6,8-dihydro-2H,7H-spiro[furo [2,3-e]isoindole-3,4′-piperidin]-7-yl)piperidine-2,6-dione]",IC50,T47D cell line,> 10 nM
same,DC50,ER [1],> 100 nM
"O=C1CCC(N2Cc3cc4c(cc3C2=O)OC[C@@H]2CN(CC3CC5(CCN(c6ccc(C7c8ccc(O)cc8OCC7c7ccccc7)cc6)CC5)C3)CCN42)C(=O)N1 (stereo partly drawn) [Compound B3, 3-((4aS)-3-((7-(4-(7-hydroxy-3-phenylchroman-4-yl)phenyl)-7-azaspiro[3.5]nonan-2-yl)methyl)-8-oxo-1,2,3,4,4a,5,8,10-octahydro-9H-pyrazino[1′,2′:4,5] [1,4]oxazino[2,3-f]isoindol-9-yl) piperidine-2,6-dione]",IC50,T47D cell line,> 10 nM
same,DC50,ER [1],> 100 nM
"O=C1CCC(N2Cc3cc(N4CCN(CC5CC6(CCN(c7ccc([C@@H]8c9ccc(O)cc9OC[C@@H]8c8ccccc8)cn7)CC6)C5)CC4)ccc3C2=O)C(=O)N1 (single isomer, unassigned) [Compound A92]",DC50,ER [2],< 1 nM
same,MCF7 Dmax %,ER [2],B (“B”: >50% and <75%)
same,IC50,T47D cells [3],< 50 nM
same,IC50,MCF-7 cells [4],< 50 nM
same,DC50,ER [5],< 1 nM
same,T47D Dmax %,ER [5],B (“B”: >50% and <75%)
same,IC50,CRBN/DDB1; CRBN HTRF IC50 (nM),> 5000 nM
"O=C1CCC(N2Cc3cc(N4CCN(CC5CCN(c6ccc([C@@H]7c8ccc(O)cc8OC[C@@H]7c7ccccc7)cc6)CC5)CC4)ccc3C2=O)C(=O)N1 (single isomer, unassigned) [Compound A62]",DC50,ER [2],< 1 nM
same,Dmax,ER [2],50 to 75%
same,IC50,ERα_LBD(GST),< 5 nM
same,IC50,T47D cells [6],< 50 nM
same,DC50,ER [5],< 1 nM
same,Dmax,ER [5],50 to 75%
same,IC50,CRBN/DDB1; read-out: CRBN HTRF IC50,50 to 500 nM
same,IC50,MCF-7 cells [7],< 50 nM
"O=C1CC[C@H](N2Cc3c(ccc4c3OC[C@H]3CN(CC5CCC6(CC5)CN(c5ccc([C@@H]7c8ccc(O)cc8OC[C@@H]7c7ccccc7)cc5)C6)CCN43)C2=O)C(=O)N1 (single isomer, unassigned) [Compound A115]",DC50,ER [2],< 1 nM
same,Dmax,ER [2],≥ 75%
same,IC50,ERα_LBD(GST),< 5 nM
same,IC50,T47D cells [6],50 to 500 nM
same,DC50,ER [5],< 1 nM
same,Dmax,ER [5],≥ 75%
same,IC50,CRBN/DDB1; read-out: CRBN HTRF IC50,50 to 500 nM
same,IC50,MCF-7 cells [7],50 to 500 nM
